Laboratory results: patent US12692269B2, “Therapeutic compounds” (Genentech, Inc., priority 2019, dated 2026)
pEC50: −log10 of the molar value.

Assays:
Format in all cases: binding
TEAD1 YAP50-100 = TEAD1 YAP50-100 (Homo sapiens, UniProt P28347); assay: TEAD1-YAP HTRF (TR-FRET) protein-protein interaction assay; conditions: TEAD1, YAP peptide 50-100, HTRF; for pEC50: read-out: TEAD1 YAP50-100 HTRF combined: EC50
In short: (§1)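 Compounds were first allowed 30 min to bind Eu-antibody-tagged His-TEAD (YAP-binding domain, aa 217-447). Biotinylated YAP 50-100 or TAZ 13-57 peptide complexed with streptavidin-XL665 was then added for 60 min at room temperature, and loss of TR-FRET signal gave IC50 or EC50 values.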

[1] = target: TEAD2 TAZ (amino acids 13-57) (Homo sapiens, UniProt Q15562); assay: TEAD2-TAZ HTRF (TR-FRET) protein-protein interaction assay; conditions: for TEAD2 TAZ HTRF combined: Max % Inhibition: TEAD2, TAZ peptide; for pEC50: TEAD2-TAZ HTRF, TR-FRET 665 nm/615 nm, read-out: TEAD2 TAZ HTRF combined: EC50
TEAD2 TAZ (amino acids 13-57), sequence (Q15562 217-447): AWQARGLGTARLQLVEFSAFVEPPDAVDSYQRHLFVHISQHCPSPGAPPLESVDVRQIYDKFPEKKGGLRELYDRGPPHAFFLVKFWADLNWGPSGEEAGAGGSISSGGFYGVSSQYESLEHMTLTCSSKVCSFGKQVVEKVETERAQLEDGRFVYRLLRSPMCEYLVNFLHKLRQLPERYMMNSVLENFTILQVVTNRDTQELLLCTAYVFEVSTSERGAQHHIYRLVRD
In short: as §1

TEAD4 YAP50-100 = TEAD4 YAP50-100 (Homo sapiens, UniProt Q15561); assay: TEAD4-YAP HTRF (TR-FRET) protein-protein interaction assay; conditions: TEAD4, YAP peptide 50-100, HTRF; for pEC50: read-out: TEAD4 YAP50-100 HTRF combined: EC50
TEAD4 YAP50-100, sequence (Q15561 217-434 limits assumed): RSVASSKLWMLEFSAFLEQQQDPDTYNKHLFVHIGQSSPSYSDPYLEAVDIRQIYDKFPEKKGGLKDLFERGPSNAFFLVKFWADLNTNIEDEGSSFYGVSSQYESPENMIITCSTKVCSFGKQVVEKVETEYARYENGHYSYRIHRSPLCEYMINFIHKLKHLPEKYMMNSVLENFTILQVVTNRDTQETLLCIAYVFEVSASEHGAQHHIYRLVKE
In short: as §1

TEAD3 YAP50-100 = TEAD3 YAP50-100 (Homo sapiens, UniProt Q99594); assay: TEAD3-YAP HTRF (TR-FRET) protein-protein interaction assay; conditions: TEAD3, YAP peptide 50-100, HTRF; for pEC50: read-out: TEAD3 YAP50-100 HTRF combined: EC50
TEAD3 YAP50-100, sequence (Q99594 173-435 limits assumed): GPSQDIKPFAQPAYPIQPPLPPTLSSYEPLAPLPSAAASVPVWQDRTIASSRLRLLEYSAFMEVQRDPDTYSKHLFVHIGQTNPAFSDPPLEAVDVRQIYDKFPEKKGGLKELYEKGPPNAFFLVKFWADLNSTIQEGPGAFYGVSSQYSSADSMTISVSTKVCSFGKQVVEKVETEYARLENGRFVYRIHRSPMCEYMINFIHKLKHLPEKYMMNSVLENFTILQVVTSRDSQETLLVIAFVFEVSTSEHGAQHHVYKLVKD
In short: as §1

[2] = target: TEAD4 TAZ (amino acids 13-57) (Homo sapiens, UniProt Q15561); assay: TEAD4-TAZ HTRF (TR-FRET) protein-protein interaction assay; conditions: for TEAD4 TAZ HTRF combined: Max % Inhibition: TEAD4, TAZ peptide; for pEC50: TEAD4-TAZ HTRF, TR-FRET 665 nm/615 nm, read-out: TEAD4 TAZ HTRF combined: EC50
TEAD4 TAZ (amino acids 13-57), sequence (Q15561 217-434 limits assumed): as the sequence (Q15561 217-434 limits assumed) above
In short: as §1

[3] = target: TEAD1 TAZ (amino acids 13-57) (Homo sapiens, UniProt P28347); assay: TEAD1-TAZ HTRF (TR-FRET) protein-protein interaction assay; conditions: for TEAD1 TAZ HTRF combined: Max % Inhibition: TEAD1, TAZ peptide; for pEC50: TEAD1-TAZ HTRF, TR-FRET 665 nm/615 nm, read-out: TEAD1 TAZ HTRF combined: EC50
TEAD1 TAZ (amino acids 13-57), sequence (P28347 167-426 limits assumed): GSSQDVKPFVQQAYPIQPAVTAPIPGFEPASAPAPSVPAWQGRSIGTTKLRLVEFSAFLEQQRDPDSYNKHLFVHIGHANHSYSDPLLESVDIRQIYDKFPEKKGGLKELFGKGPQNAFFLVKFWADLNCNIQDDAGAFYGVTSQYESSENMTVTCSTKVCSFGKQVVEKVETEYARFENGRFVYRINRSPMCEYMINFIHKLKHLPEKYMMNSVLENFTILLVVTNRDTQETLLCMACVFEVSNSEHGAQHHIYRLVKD
In short: as §1

TEAD2 YAP50-100 = TEAD2 YAP50-100 (Homo sapiens, UniProt Q15562); assay: TEAD2-YAP HTRF (TR-FRET) protein-protein interaction assay; conditions: TEAD2, YAP peptide 50-100, HTRF; for pEC50: read-out: TEAD2 YAP50-100 HTRF combined: EC50
TEAD2 YAP50-100, sequence (Q15562 217-447): as the sequence (Q15562 217-447) above
In short: as §1

[4] = target: TEAD3 TAZ (amino acids 13-57) (Homo sapiens, UniProt Q99594); assay: TEAD3-TAZ HTRF (TR-FRET) protein-protein interaction assay; conditions: for TEAD3 TAZ HTRF combined: Max % Inhibition: TEAD3, TAZ peptide; for pEC50: TEAD3-TAZ HTRF, TR-FRET 665 nm/615 nm, read-out: TEAD3 TAZ HTRF combined: EC50
TEAD3 TAZ (amino acids 13-57), sequence (Q99594 173-435 limits assumed): as the sequence (Q99594 173-435 limits assumed) above
In short: as §1

TEAD1 YAP50-100, sequence (P28347 167-426 limits assumed): as the sequence (P28347 167-426 limits assumed) above

Row | SMILES | TEAD1 YAP50-100 HTRF combined: Max % Inhibition (TEAD1 YAP50-100) | pEC50 (TEAD1 YAP50-100) | TEAD2 TAZ HTRF combined: Max % Inhibition [1] | pEC50 [1] | TEAD4 YAP50-100 HTRF combined: Max % Inhibition (TEAD4 YAP50-100) | pEC50 (TEAD4 YAP50-100) | TEAD3 YAP50-100 HTRF combined: Max % Inhibition (TEAD3 YAP50-100) | pEC50 (TEAD3 YAP50-100) | TEAD4 TAZ HTRF combined: Max % Inhibition [2] | pEC50 [2] | TEAD1 TAZ HTRF combined: Max % Inhibition [3] | pEC50 [3] | TEAD2 YAP50-100 HTRF combined: Max % Inhibition (TEAD2 YAP50-100) | pEC50 (TEAD2 YAP50-100) | TEAD3 TAZ HTRF combined: Max % Inhibition [4] | pEC50 [4]
1 | Cc1cnc(-c2nn3c(=O)cc(-c4ccc(C5CCCCC5)cc4)[nH]c3c2C(=O)N2CC(CF)C2)cn1 [Compound 26, 5-(4-Cyclohexylphenyl)-3-(3-(fluoromethyl)azetidine-1-carbonyl)-2-(5-methylpyrazin-2-yl) pyrazolo [1,5-a]pyrimidin-7(4H)-one] | 71.0% | 7.22 | 72.5% | 7.52 | 44.5% | 6.47 | 66.0% | 6.85 | 45.5% | 6.54 | 70.0% | 7.00 | 70.0% | 7.52 | 60.0% | 6.82
2 | Cc1nccnc1-c1nn2c(=O)cc(-c3ccc(C4CCCCC4)cc3)[nH]c2c1C(=O)N1CC(CF)C1 [Compound 27, 5-(4-Cyclohexylphenyl)-3-(3-(fluoromethyl)azetidine-1-carbonyl)-2-(3-methylpyrazin-2-yl)pyrazolo[1,5-a]pyrimidin-7(4H)-one] | 75.0% | 7.52 | 67.9% | 8.00 | 54.1% | 7.52 | 74.6% | 7.00 | 53.1% | 7.52 | 74.5% | 7.30 | 68.6% | 8.00 | 64.9% | 7.00
3 | Cc1cncc(-c2nn3c(=O)cc(-c4ccc(C5CCCCC5)cc4)[nH]c3c2C(=O)N2CC(CF)C2)n1 [Compound 28, 5-(4-Cyclohexylphenyl)-3-(3-(fluoromethyl)azetidine-1-carbonyl)-2-(6-methylpyrazin-2-yl)pyrazolo[1,5-a]pyrimidin-7(4H)-one] | 76.0% | 7.40 | 66.5% | 8.00 | 43.5% | 6.89 | 68.0% | 7.00 | 41.0% | 6.92 | 74.0% | 7.22 | 59.5% | 7.70 | 63.0% | 7.00
4 | Cc1ccnc(-c2nn3c(=O)cc(-c4ccc(C5CCCCC5)cc4)[nH]c3c2C(=O)N2CC(CF)C2)c1C [Compound 29, 5-(4-Cyclohexylphenyl)-2-(3,4-dimethylpyridin-2-yl)-3-(3-(fluoromethyl)azetidine-1-carbonyl)pyrazolo[1,5-a]pyrimidin-7(4H)-one] | 78.0% | 7.22 | 70.0% | 7.70 | 54.0% | 7.52 | 72.5% | 6.74 | 50.5% | 7.70 | 71.5% | 7.05 | 70.0% | 7.70 | 57.5% | 6.77
5 | CCN(C)C(=O)c1nn2c(=O)cc(-c3ccc(C4CCCCC4)cc3)[nH]c2c1C(=O)N1CC(CF)C1 [Compound 35, 5-(4-Cyclohexylphenyl)-N-ethyl-3-(3-(fluoromethyl)azetidine-1-carbonyl)-N-methyl-7-oxo-4,7-dihydropyrazolo[1,5-a]pynmidine-2-carboxamide] | 72.0% | 7.15 | 71.5% | 7.70 | 52.5% | 6.74 | 68.0% | 6.89 | 37.0% | 6.85 | 59.0% | 7.10 | 71.5% | 7.70 | 57.0% | 6.82
6 | O=C(c1nn2c(=O)cc(-c3ccc(C4CCCCC4)cc3)[nH]c2c1C(=O)N1CC(CF)C1)N1CCCC1 [Compound 36, 5-(4-Cyclohexylphenyl)-3-(3-(fluoromethyl)azetidine-1-carbonyl)-2-(pyrrolidine-1-carbonyl)pyrazolo[1,5-a]pyrimidin-7(4H)-one] | 70.0% | 7.15 | 73.5% | 7.70 | 48.0% | 5.99 | 71.0% | 6.74 | 38.0% | 6.07 | 60.5% | 7.10 | 73.5% | 7.70 | 60.0% | 6.70

More lines, now with the values ahead:

Row | TEAD1 YAP50-100 HTRF combined: Max % Inhibition (TEAD1 YAP50-100) | pEC50 (TEAD1 YAP50-100) | TEAD2 TAZ HTRF combined: Max % Inhibition [1] | pEC50 [1] | TEAD4 YAP50-100 HTRF combined: Max % Inhibition (TEAD4 YAP50-100) | pEC50 (TEAD4 YAP50-100) | TEAD3 YAP50-100 HTRF combined: Max % Inhibition (TEAD3 YAP50-100) | pEC50 (TEAD3 YAP50-100) | TEAD4 TAZ HTRF combined: Max % Inhibition [2] | pEC50 [2] | TEAD1 TAZ HTRF combined: Max % Inhibition [3] | pEC50 [3] | TEAD2 YAP50-100 HTRF combined: Max % Inhibition (TEAD2 YAP50-100) | pEC50 (TEAD2 YAP50-100) | TEAD3 TAZ HTRF combined: Max % Inhibition [4] | pEC50 [4] | SMILES
7 | 71.0% | 7.15 | 61.5% | 8.00 | 45.0% | 6.74 | 65.0% | 7.05 | 31.5% | 6.92 | 64.5% | 7.22 | 61.5% | 8.00 | 51.5% | 7.10 | Cc1c(-c2nn3c(=O)cc(-c4ccc(C5CCCCC5)cc4)[nH]c3c2C(=O)N2CC(CF)C2)ncn1C [Compound 30, 5-(4-Cyclohexylphenyl)-2-(1,5-dimethyl-1H-imidazol-4-yl)-3-(3-(fluoromethyl)azetidine-1-carbonyl)pyrazolo[1,5-a]pyrimidin-7(4H)-one]
8 | 65.0% | 7.10 | 60.5% | 7.70 | 36.0% | 6.11 | 59.0% | 6.77 | 32.0% | 6.21 | 60.5% | 6.92 | 62.0% | 7.70 | 49.5% | 6.68 | CCn1cnc(-c2nn3c(=O)cc(-c4ccc(C5CCCCC5)cc4)[nH]c3c2C(=O)N2CC(CF)C2)c1 [Compound 31, 5-(4-Cyclohexylphenyl)-2-(1-ethyl-1H-imidazol-4-yl)-3-(3-(fluoromethyl)azetidine-1-carbonyl)pyrazolo[1,5-a]pyrimidin-7(4H)-one]
9 | 65.0% | 7.30 | 59.0% | 8.00 | 38.5% | 6.42 | 61.0% | 7.22 | 31.0% | 6.54 | 59.5% | 7.30 | 61.5% | 8.00 | 49.5% | 7.22 | Cn1cnc(-c2nn3c(=O)cc(-c4ccc(C5CCCCC5)cc4)[nH]c3c2C(=O)N2CC(CF)C2)c1 [Compound 32, 5-(4-Cyclohexylphenyl)-3-(3-(fluoromethyl)azetidine-1-carbonyl)-2-(1-methyl-1H-imidazol-4-yl)pyrazolo[1,5-a]pyrimidin-7(4H)-one]
